# Measured values reported in ChEMBL document CHEMBL1139046, “3,4-Dihydro-2H-benzoxazinones as dual-acting 5-HT1A receptor antagonists and serotonin reuptake inhibitors” (Bioorg Med Chem Lett, 2007).
# Activity calls are given as the source filed them. The calls are words filed in the database; no cut-off is given here.
# Columns and labels:
# [1] = biological target: T1, 5-hydroxytryptamine receptor 1A (Homo sapiens, UniProt P08908); assay: Displacement of [3H]WAY-100635 from human cloned 5HT1A receptor expressed in CHO cells; format: cell-based
# T1 sequence (P08908 whole entry): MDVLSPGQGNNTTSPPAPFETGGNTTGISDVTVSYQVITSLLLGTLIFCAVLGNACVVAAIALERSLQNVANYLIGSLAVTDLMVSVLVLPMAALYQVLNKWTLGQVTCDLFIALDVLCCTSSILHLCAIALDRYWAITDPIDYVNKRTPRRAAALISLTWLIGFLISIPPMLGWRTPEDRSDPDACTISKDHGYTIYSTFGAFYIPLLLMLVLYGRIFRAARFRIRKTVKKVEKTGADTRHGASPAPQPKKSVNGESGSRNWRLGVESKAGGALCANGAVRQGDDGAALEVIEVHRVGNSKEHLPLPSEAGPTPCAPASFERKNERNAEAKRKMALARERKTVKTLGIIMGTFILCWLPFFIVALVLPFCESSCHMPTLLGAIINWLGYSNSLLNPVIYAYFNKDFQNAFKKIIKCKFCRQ
# [2] = biological target: 5-hydroxytryptamine receptor 1B (Homo sapiens, UniProt P28222); assay: Displacement of [3H]5-HT from human cloned 5HT1B receptor expressed in CHO cells; format: cell-based
# [3] = biological target: 5-hydroxytryptamine receptor 1D (Homo sapiens, UniProt P28221); assay: Displacement of [3H]5-HT from human cloned 5HT1D receptor expressed in CHO cells; format: cell-based
# [4] = biological target: Sodium-dependent serotonin transporter (Rattus norvegicus, UniProt P31652); assay: Inhibition of [3H]5-HT uptake at SERT in rat cortical synaptosomes; format: subcellular, Brain
# [5] = biological target: 5-hydroxytryptamine receptor 2A (Homo sapiens, UniProt P28223); assay: Displacement of [3H]ketanserin from human cloned 5HT2A receptor expressed in HEK293 cells; format: cell-based
# [6] = biological target: 5-hydroxytryptamine receptor 2B (Homo sapiens, UniProt P41595); assay: Displacement of [3H]5-HT from human cloned 5HT2B receptor expressed in HEK293 cells; format: cell-based
# [7] = biological target: T2, 5-hydroxytryptamine receptor 2C (Homo sapiens, UniProt P28335); assay: Displacement of [3H]mesulergine from human cloned 5HT2C receptor expressed in HEK293 cells; format: cell-based
# T2 sequence (P28335 whole entry): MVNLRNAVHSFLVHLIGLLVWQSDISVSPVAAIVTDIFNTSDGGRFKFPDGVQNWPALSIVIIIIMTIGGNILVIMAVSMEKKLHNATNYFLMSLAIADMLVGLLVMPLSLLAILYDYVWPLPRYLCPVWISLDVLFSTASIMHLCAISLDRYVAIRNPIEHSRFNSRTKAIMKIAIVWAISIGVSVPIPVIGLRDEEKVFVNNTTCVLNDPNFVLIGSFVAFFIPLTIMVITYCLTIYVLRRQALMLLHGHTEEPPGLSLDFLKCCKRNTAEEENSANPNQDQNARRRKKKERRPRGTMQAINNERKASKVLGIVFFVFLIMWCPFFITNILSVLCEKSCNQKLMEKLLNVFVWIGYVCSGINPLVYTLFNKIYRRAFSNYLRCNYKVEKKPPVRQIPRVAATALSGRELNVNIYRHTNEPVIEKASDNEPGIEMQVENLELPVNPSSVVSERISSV
# [8] = biological target: 5-hydroxytryptamine receptor 6 (Homo sapiens, UniProt P50406); assay: Displacement of [3H]LSD from human cloned 5HT6 receptor expressed in HeLa cells; format: cell-based
# [9] = biological target: 5-hydroxytryptamine receptor 7 (Homo sapiens, UniProt P34969); assay: Displacement of [3H]5CT from human cloned 5HT7a receptor expressed in HEK293 cells; format: cell-based
# [10] = Blood clearance in rat at 3 mg/kg, po; format: ADME, organism-based; design: dose 3 mg/kg, route oral; settings: whole blood
# [11] = Oral bioavailability in rat at 3 mg/kg, po; format: ADME, organism-based; settings: in vivo
# D(2) dopamine receptor = D(2) dopamine receptor (Homo sapiens, UniProt P14416); assay: Displacement of [125I]iodosulpiride from human cloned D2 receptor expressed in CHO cells; format: cell-based
# D(3) dopamine receptor = D(3) dopamine receptor (Homo sapiens, UniProt P35462); assay: Displacement of [125I]iodosulpiride from human cloned D3 receptor expressed in CHO cells; format: cell-based
# [12] = biological target: Alpha-1B adrenergic receptor (Homo sapiens) (UniProt P35368); assay: Binding affinity at adrenergic alpha 1b receptor
# Homo sapiens [13] = organism: Homo sapiens; assay: Selectivity for human 5TH1A over human 5HT1B
# Homo sapiens [14] = organism: Homo sapiens; assay: Selectivity for human 5TH1A over human 5HT1D
# [15] = Selectivity for rat SERT over human 5HT1B
# [16] = Selectivity for rat SERT over human 5HT1D
# [17] = biological target: T3, 5-hydroxytryptamine receptor 1A (Homo sapiens) (UniProt P08908); assay: Intrinsic activity at 5HT1A receptor expressed in HEK293 cells relative to 5HT by [35S]GTPgammaS binding assay; format: functional, cell-based
# T3 sequence (whole entry): T1 sequence (P08908 whole entry)
# [18] = biological target: T4, 5-hydroxytryptamine receptor 1A (Rattus norvegicus, UniProt P19327); assay: Agonist activity at rat 5HT1A receptor; format: functional
# T4 sequence (P19327 whole entry): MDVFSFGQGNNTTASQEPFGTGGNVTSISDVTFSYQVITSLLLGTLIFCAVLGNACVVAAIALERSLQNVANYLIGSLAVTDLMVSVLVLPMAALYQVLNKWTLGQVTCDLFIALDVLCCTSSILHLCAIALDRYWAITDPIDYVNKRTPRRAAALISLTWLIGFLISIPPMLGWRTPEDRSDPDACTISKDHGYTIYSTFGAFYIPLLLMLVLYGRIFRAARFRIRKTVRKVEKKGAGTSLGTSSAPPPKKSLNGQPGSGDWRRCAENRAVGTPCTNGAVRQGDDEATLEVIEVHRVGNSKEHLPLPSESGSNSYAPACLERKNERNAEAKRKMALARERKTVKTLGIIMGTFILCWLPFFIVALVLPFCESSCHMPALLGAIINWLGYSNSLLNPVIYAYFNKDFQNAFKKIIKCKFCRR
# [19] = Agonist activity at guinea pig 5HT1A receptor; format: functional, Cavia porcellus
# Rattus norvegicus [20] = organism: Rattus norvegicus; assay: Ex vivo inhibition of [3H]5-HT uptake at SERT in rat cortical synaptosomes; format: functional; settings: Brain
# Rattus norvegicus [21] = assay: Ex vivo displacement of [3H]WAY-100635 from 5HT1A receptor in rat cortex at 1 mg/kg, po; format: functional
# Rattus norvegicus [22] = assay: Ex vivo displacement of [3H]8-OH DPAT from 5HT1A receptor in rat cortex at 1 mg/kg, po; format: functional
# [23] = Agonist activity at marmoset 5HT1A receptor; format: functional, Callithrix jacchus
# Rattus norvegicus [24] = organism: Rattus norvegicus; assay: Ex vivo displacement of [3H]WAY-100635 from 5HT1A receptor in rat cortex; format: functional, organism-based
# Rattus norvegicus [25] = organism: Rattus norvegicus; assay: Ex vivo displacement of [3H]8-OH DPAT from 5HT1A receptor in rat cortex; format: functional, organism-based
# Rattus norvegicus [26] = assay: Attenuation of 8-OH DPAT induced locomotor activity in po dosed rat; format: functional
# Rattus norvegicus [27] = assay: Effect on locomotor activity in rat up to 10 mg/kg
# [28] = Ratio of drug level in brain to blood in rat
# Sequence of 5-hydroxytryptamine receptor 7 (P34969 whole entry): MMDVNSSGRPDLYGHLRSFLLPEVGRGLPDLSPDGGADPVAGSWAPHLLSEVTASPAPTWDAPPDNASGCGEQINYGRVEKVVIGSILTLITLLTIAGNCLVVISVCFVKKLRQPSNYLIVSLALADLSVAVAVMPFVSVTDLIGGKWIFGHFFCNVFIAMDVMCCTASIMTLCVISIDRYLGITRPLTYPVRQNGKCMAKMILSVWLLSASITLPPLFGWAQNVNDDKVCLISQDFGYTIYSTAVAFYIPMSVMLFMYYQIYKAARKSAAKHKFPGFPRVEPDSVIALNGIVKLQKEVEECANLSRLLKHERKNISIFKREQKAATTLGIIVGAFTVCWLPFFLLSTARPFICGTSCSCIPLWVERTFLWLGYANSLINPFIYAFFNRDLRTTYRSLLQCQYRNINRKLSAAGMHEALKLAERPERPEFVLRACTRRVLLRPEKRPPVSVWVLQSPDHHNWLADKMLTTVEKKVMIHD
# Sequence of D(3) dopamine receptor (P35462 whole entry): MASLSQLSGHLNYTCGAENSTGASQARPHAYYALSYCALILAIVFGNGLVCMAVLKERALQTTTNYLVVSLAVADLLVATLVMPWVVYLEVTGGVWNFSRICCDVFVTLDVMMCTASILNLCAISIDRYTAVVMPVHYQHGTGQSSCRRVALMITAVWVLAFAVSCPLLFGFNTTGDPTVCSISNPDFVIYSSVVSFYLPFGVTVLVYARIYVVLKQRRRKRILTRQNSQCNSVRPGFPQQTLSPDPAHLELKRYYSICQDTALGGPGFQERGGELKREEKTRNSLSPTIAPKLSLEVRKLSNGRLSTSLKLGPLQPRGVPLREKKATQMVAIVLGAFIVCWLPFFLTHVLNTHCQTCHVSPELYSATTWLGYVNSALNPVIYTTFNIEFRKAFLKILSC
# Sequence of 5-hydroxytryptamine receptor 2A (P28223 whole entry): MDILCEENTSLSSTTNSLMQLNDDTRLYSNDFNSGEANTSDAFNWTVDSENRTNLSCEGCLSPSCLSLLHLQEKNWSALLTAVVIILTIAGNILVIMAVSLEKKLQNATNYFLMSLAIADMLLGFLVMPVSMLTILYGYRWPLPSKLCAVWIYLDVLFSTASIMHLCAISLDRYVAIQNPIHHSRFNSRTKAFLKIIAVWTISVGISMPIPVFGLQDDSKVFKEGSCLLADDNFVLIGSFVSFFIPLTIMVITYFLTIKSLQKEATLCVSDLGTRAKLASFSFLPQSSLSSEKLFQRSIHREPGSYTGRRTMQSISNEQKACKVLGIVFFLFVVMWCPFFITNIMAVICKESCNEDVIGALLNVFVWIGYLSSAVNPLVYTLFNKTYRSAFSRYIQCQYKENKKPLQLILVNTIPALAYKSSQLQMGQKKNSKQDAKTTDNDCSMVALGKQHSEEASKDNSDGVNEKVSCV
# Sequence of D(2) dopamine receptor (P14416 whole entry): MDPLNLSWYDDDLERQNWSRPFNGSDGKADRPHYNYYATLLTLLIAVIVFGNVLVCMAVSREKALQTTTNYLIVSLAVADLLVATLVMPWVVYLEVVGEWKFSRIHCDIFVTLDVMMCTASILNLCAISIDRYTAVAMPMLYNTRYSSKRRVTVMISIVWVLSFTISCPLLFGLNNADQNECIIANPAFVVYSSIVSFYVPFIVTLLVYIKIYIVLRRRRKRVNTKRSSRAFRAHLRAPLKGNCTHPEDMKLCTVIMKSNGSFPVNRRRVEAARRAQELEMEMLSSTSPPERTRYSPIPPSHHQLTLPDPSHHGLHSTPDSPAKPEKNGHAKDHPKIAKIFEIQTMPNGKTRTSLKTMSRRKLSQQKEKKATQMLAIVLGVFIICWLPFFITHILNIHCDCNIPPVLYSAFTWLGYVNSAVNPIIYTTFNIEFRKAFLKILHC
# Sequence of 5-hydroxytryptamine receptor 2B (P41595 whole entry): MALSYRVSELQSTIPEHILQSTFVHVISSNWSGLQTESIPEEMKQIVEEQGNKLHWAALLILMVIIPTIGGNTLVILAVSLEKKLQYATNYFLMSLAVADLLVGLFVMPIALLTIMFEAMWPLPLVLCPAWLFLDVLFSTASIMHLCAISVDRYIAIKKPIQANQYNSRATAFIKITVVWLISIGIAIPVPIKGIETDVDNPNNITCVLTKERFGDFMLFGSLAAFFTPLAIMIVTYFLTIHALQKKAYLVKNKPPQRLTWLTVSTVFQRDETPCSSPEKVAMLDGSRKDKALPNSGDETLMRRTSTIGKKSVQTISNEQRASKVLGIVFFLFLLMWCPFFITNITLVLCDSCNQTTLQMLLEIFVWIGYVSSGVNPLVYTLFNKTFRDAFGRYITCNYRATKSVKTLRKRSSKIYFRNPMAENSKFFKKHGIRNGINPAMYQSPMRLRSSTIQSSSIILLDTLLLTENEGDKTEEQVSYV
# Sequence of Alpha-1B adrenergic receptor (Homo sapiens) (P35368 whole entry, looked up): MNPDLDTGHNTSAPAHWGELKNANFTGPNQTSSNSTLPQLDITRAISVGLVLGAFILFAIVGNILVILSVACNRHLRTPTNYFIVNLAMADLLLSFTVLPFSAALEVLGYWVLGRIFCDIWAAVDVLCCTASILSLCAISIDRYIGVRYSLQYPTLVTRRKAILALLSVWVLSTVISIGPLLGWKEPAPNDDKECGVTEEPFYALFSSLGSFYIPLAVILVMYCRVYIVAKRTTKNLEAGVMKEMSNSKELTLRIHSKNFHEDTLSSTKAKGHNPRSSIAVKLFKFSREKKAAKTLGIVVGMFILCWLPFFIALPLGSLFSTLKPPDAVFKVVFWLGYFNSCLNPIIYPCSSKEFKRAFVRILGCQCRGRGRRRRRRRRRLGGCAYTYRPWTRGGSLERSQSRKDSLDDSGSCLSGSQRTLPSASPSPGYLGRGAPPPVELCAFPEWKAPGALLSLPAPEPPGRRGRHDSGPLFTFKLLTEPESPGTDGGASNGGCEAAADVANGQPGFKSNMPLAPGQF
# Sequence of 5-hydroxytryptamine receptor 6 (P50406 whole entry): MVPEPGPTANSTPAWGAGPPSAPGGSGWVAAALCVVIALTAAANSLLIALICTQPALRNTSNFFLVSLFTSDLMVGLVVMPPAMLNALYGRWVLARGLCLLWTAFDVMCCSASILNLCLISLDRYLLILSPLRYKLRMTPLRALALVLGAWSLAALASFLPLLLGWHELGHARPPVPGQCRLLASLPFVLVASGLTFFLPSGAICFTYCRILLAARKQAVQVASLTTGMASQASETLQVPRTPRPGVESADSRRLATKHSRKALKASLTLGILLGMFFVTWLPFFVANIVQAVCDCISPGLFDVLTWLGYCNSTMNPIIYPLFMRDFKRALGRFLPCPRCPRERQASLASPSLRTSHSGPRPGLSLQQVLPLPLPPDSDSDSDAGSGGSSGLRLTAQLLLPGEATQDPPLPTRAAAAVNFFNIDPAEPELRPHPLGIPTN
# Sequence of 5-hydroxytryptamine receptor 1B (P28222 whole entry): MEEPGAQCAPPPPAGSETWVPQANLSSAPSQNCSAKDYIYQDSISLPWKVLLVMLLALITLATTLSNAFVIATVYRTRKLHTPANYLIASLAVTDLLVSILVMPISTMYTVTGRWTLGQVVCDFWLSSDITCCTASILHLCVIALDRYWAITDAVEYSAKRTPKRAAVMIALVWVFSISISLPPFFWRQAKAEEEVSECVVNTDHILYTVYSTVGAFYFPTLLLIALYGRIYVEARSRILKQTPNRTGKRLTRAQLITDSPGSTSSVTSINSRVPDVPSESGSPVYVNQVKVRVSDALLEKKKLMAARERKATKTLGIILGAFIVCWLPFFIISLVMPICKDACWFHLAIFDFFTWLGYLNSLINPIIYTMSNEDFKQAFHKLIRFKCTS
# Sequence of 5-hydroxytryptamine receptor 1D (P28221 whole entry): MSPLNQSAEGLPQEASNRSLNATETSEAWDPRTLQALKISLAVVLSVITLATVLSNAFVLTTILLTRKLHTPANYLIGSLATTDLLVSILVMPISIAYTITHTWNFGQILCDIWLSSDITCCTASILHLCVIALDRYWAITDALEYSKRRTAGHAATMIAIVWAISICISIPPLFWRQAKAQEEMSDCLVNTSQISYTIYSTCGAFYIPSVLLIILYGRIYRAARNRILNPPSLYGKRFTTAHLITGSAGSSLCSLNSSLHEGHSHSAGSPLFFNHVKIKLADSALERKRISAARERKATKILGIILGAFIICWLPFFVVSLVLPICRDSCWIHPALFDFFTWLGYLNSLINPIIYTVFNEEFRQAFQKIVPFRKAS
# Sequence of Sodium-dependent serotonin transporter (P31652 whole entry): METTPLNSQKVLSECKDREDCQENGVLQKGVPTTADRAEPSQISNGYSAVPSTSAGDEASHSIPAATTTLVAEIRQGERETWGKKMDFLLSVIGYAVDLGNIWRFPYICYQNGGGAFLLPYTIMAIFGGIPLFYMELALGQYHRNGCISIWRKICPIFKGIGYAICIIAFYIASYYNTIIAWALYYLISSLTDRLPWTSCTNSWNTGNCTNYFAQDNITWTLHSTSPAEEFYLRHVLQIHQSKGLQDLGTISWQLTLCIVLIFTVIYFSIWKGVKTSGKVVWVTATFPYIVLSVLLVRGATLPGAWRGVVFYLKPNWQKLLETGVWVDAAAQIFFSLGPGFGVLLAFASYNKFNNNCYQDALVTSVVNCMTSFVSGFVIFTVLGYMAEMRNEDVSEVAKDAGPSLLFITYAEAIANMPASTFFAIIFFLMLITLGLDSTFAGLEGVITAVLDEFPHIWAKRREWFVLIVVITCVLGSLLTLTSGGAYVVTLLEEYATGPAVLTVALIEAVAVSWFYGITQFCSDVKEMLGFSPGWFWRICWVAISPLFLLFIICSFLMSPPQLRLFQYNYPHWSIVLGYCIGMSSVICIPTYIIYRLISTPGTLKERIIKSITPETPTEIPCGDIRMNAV
Structure (SMILES),Ki [1] [nM],Ki [2] [nM],Ki [3] [nM],Ki [4] [nM],Ki [5] [nM],Ki [6] [nM],Ki [7] [nM],Ki [8] [nM],Ki [9] [nM],CL/F [10] [mL/min/kg],bioavailability [11] [%],Ki (D(2) dopamine receptor) [nM],Ki (D(3) dopamine receptor) [nM],Ki [12] [nM],further results
Cc1ccc2c(OCCN3CCC(Cc4cc(F)c5c(c4)NC(=O)CO5)CC3)cc(Cl)cc2n1,10,631,631,63.1,3160,3160,2510,> 10000,79.4,16,51,2510,1260,1580,–
Cc1ccc2c(OCCN3CCC(Cc4cc5c(cc4F)OCC(=O)N5)CC3)cccc2n1,0.501,20,3.16,7.94,–,–,–,–,–,36,33,–,–,–,–
Cc1ccc2c(OCCN3CCC(Cc4ccc5c(c4)NC(=O)CO5)CC3)ccc(Cl)c2n1,39.8,158,63.1,12.6,–,–,–,–,–,–,–,–,–,–,–
Cc1ccc2c(OCCN3CCC(Cc4cc5c(cc4F)OCC(=O)N5)CC3)cc(Cl)cc2n1,2.51,2000,794,15.8,> 10000,–,> 5010,7940,39.8,18,60,3160,2000,2510,Log Ki ([6]; hek293): > -6; Selectivity ratio (Homo sapiens [13]): 100; Selectivity ratio (Homo sapiens [14]): 100; Selectivity ratio [15]: 100; Selectivity ratio [16]: 100; Intrinsic activity [17]: 0; Ki [18]: > 1 nM; Log Ki [19]: > -9; ED50 (Rattus norvegicus [20]): 3 mg/kg; inhibition in vivo at 1 mg/kg (Rattus norvegicus [21]): 50%; inhibition in vivo at 1 mg/kg (Rattus norvegicus [22]): 50%; Log Ki [23]: > -9; Activity (Rattus norvegicus [24]): Dose-dependent effect; Activity (Rattus norvegicus [25]): Dose-dependent effect; ED50 (Rattus norvegicus [26]): 3 mg/kg; Activity (Rattus norvegicus [27]): inactive
Cc1ccc2c(OCCN3CCC(Cc4ccc5c(c4F)NC(=O)CO5)CC3)cc(Cl)cc2n1,2.51,1580,631,63.1,3980,1580,3980,> 10000,126,28,43,1260,1000,398,–

# Continued, in another order:
Ki [1] [nM],Ki [2] [nM],Ki [3] [nM],Ki [4] [nM],Ki [5] [nM],Ki [6] [nM],Ki [7] [nM],Ki [8] [nM],Ki [9] [nM],CL/F [10] [mL/min/kg],bioavailability [11] [%],Ki (D(2) dopamine receptor) [nM],Ki (D(3) dopamine receptor) [nM],Ki [12] [nM],Structure (SMILES),further results
–,–,–,–,3160,1580,> 7940,> 10000,200,50,45,1260,631,2510,Cc1ccc2c(OCCN3CCC(Cc4ccc5c(c4)NC(=O)CO5)CC3)cccc2n1,–
0.398,1000,251,7.94,2000,1000,1260,> 1000,39.8,19,54,2000,501,794,Cc1ccc2c(OCCN3CCC(Cc4cc5c(cc4F)OCC(=O)N5)CC3)cc(F)cc2n1,Selectivity ratio (Homo sapiens [13]): 100; Selectivity ratio (Homo sapiens [14]): 100; Selectivity ratio [15]: 100; Selectivity ratio [16]: 100; Intrinsic activity [17]: 0; Ki [18]: > 1 nM; Log Ki [19]: > -9; ED50 (Rattus norvegicus [20]): 3 mg/kg; inhibition in vivo at 1 mg/kg (Rattus norvegicus [21]): 50%; inhibition in vivo at 1 mg/kg (Rattus norvegicus [22]): 50%; Log Ki [23]: > -9; Activity (Rattus norvegicus [24]): Dose-dependent effect; Activity (Rattus norvegicus [25]): Dose-dependent effect; ED50 (Rattus norvegicus [26]): < 1 mg/kg; Kp [28]: 1.2
0.794,> 1000,398,15.8,–,–,–,–,–,25,41,–,–,–,Cc1ccc2c(OCCN3CCC(Cc4ccc5c(c4)NC(=O)CO5)CC3)cc(F)cc2n1,–
